# Test results reported in PubChem BioAssay (NCI).
#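 Growth conditions: 96-well plates. Treatment: test compound, 48 hours, 5 concentrations. Analysis: linear interpolation between bracketing concentrations; unreached endpoints set to highest concentration. The concentration for full growth arrest is given as TGI.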
# What was measured:
# Assay in all cases: DTP human tumour cell line panel, 48 h
# [1] = test system: RXF 393 renal
# [2] = test system: NCI-H460 lung
# [3] = test system: SK-MEL-28 melanoma
# [4] = test system: KM12 colon
# [5] = test system: SW-620 colon
# [6] = test system: HOP-62 NSCLC
# [7] = test system: EKVX NSCLC
# [8] = test system: HOP-92 NSCLC
# [9] = test system: MALME-3M melanoma
# [10] = test system: UACC-257 melanoma
# [11] = test system: PC-3 prostate
# [12] = test system: NCI-H226 lung
# [13] = test system: 786-0 renal
# [14] = test system: MDA-MB-435
# [15] = test system: NCI-H23 lung
# [16] = test system: HCC-2998 colon
# [17] = test system: MCF7 breast
# [18] = test system: M14 melanoma
# [19] = test system: HCT-15 colon
# [20] = test system: SN12C renal
# [21] = test system: SNB-75 CNS
# [22] = test system: ACHN renal
# [23] = test system: NCI-H522 lung
# [24] = test system: MDA-MB-231 breast
# [25] = test system: A498 renal
# [26] = test system: SK-MEL-5 melanoma
# [27] = test system: DU-145 prostate
# [28] = test system: OVCAR-4 ovarian
# [29] = test system: UO-31 renal
# [30] = test system: SF-539 CNS
# [31] = test system: A549 NSCLC
# [32] = test system: SK-OV-3 ovarian
# [33] = test system: SF-268 CNS
# [34] = test system: HCT-116 colon
# [35] = test system: SF-295 CNS
# [36] = test system: IGROV1 ovarian
# [37] = test system: TK-10 renal
# [38] = test system: RPMI-8226 leukemia
# [39] = test system: LOX IMVI melanoma
# [40] = test system: U251 CNS
# [41] = test system: UACC-62 melanoma
# [42] = test system: SR leukemia
# [43] = test system: OVCAR-3 ovarian
# [44] = test system: CCRF-CEM leukemia
# [45] = test system: CAKI-1 renal
# [46] = test system: MDA-N
# [47] = test system: SK-MEL-2 melanoma
# [48] = test system: OVCAR-5 ovarian
# [49] = test system: T-47D breast
# [50] = test system: BT-549 breast
# [51] = test system: NCI/ADR-RES ovarian
# [52] = test system: COLO 205 colon
# [53] = test system: SNB-19 CNS
# [54] = test system: HS 578T breast
# [55] = test system: HT29 colon
# [56] = test system: K-562 leukemia
# [57] = test system: HL-60(TB) leukemia
# [58] = test system: MOLT-4 leukemia
# [59] = test system: OVCAR-8 ovarian
smiles,measurement,setting,value
CC1(C)C(CBr)=[N+]([O-])C(C)(C)N1O,TGI,[1],8.15 µM
same,TGI,[2],> 10 µM
same,TGI,[3],> 10 µM
same,TGI,[4],> 10 µM
same,TGI,[5],4.86 µM
same,TGI,[6],> 10 µM
same,TGI,[7],> 8.02 µM
same,TGI,[8],5.5 µM
same,TGI,[9],7.06 µM
same,TGI,[10],> 10 µM
same,TGI,[11],> 10 µM
same,TGI,[12],> 10 µM
same,TGI,[13],9.78 µM
same,TGI,[14],> 8.08 µM
same,TGI,[15],> 10 µM
same,TGI,[16],> 10 µM
same,TGI,[17],> 10 µM
same,TGI,[18],5.65 µM
same,TGI,[19],> 8.12 µM
same,TGI,[20],9.93 µM
same,TGI,[21],> 10 µM
same,TGI,[22],> 8.86 µM
same,TGI,[23],3.22 µM
same,TGI,[24],> 10 µM
same,TGI,[25],> 10 µM
same,TGI,[26],> 10 µM
same,TGI,[27],> 10 µM
same,TGI,[28],4.23 µM
same,TGI,[29],> 10 µM
same,TGI,[30],> 7.83 µM
same,TGI,[31],> 10 µM
same,TGI,[32],> 10 µM
same,TGI,[33],> 10 µM
same,TGI,[34],5.27 µM
same,TGI,[35],> 10 µM
same,TGI,[36],> 10 µM
same,TGI,[37],> 10 µM
same,TGI,[38],> 8.63 µM
same,TGI,[39],> 10 µM
same,TGI,[40],> 10 µM
same,TGI,[41],> 10 µM
same,TGI,[42],> 10 µM
same,TGI,[43],> 6.74 µM
same,TGI,[44],4.49 µM
same,TGI,[45],5.87 µM
same,TGI,[46],> 10 µM
same,TGI,[47],> 10 µM
same,TGI,[48],> 10 µM
same,TGI,[49],5.24 µM
same,TGI,[50],5.43 µM
same,TGI,[51],> 10 µM
same,TGI,[52],3.75 µM
same,TGI,[53],> 10 µM
same,TGI,[54],> 10 µM
same,TGI,[55],> 10 µM
same,TGI,[56],> 8.04 µM
same,TGI,[57],> 6.81 µM
same,TGI,[58],> 7.43 µM
same,TGI,[59],> 10 µM
COc1cc(/C=C2\N=C(c3ccccc3)N(c3nc4ccccc4s3)C2=O)cc(OC)c1OC,TGI,[1],50.7 µM
same,TGI,[2],> 100 µM
same,TGI,[3],> 100 µM
same,TGI,[4],> 100 µM
same,TGI,[5],> 100 µM
same,TGI,[6],> 100 µM
same,TGI,[7],> 100 µM
same,TGI,[8],74.5 µM
same,TGI,[10],> 100 µM
same,TGI,[11],> 100 µM
same,TGI,[12],> 100 µM
same,TGI,[13],69.3 µM
same,TGI,[14],84.6 µM
same,TGI,[15],> 100 µM
same,TGI,[16],> 100 µM
same,TGI,[17],> 100 µM
same,TGI,[18],> 100 µM
same,TGI,[19],> 100 µM
same,TGI,[20],82.4 µM
same,TGI,[21],61 µM
same,TGI,[22],84.5 µM
same,TGI,[23],35.8 µM
same,TGI,[24],> 100 µM
same,TGI,[25],> 100 µM
same,TGI,[26],> 100 µM
same,TGI,[27],> 100 µM
same,TGI,[28],68 µM
same,TGI,[29],> 100 µM
same,TGI,[30],> 100 µM
same,TGI,[31],> 100 µM
same,TGI,[33],> 100 µM
same,TGI,[34],> 100 µM
same,TGI,[35],> 100 µM
same,TGI,[36],> 100 µM
same,TGI,[37],> 100 µM
same,TGI,[38],16.7 µM
same,TGI,[39],> 100 µM
same,TGI,[40],> 100 µM
same,TGI,[42],42.5 µM
same,TGI,[43],60.4 µM
same,TGI,[45],> 100 µM
same,TGI,[46],54.4 µM
same,TGI,[47],> 100 µM
same,TGI,[48],> 100 µM
same,TGI,[49],> 100 µM
same,TGI,[50],59.4 µM
same,TGI,[51],62 µM
same,TGI,[53],> 100 µM
same,TGI,[54],> 100 µM
same,TGI,[55],> 100 µM
same,TGI,[56],> 100 µM
same,TGI,[57],> 100 µM
same,TGI,[58],46.6 µM
same,TGI,[59],> 100 µM
CCN(CC)CCOCCOCC1(c2ccc(Cl)c(Cl)c2)CCCCC1,TGI,[1],17.6 µM
same,TGI,[2],13.3 µM
same,TGI,[3],12.3 µM
same,TGI,[4],17.3 µM
same,TGI,[5],21.9 µM
same,TGI,[6],22 µM
same,TGI,[7],23 µM
same,TGI,[8],17.7 µM
same,TGI,[9],13.3 µM
same,TGI,[10],9.57 µM
same,TGI,[11],23.3 µM
same,TGI,[12],35.1 µM
same,TGI,[13],9.07 µM
same,TGI,[14],13.6 µM
same,TGI,[15],24.5 µM
same,TGI,[16],14.8 µM
same,TGI,[17],20.3 µM
same,TGI,[18],3.29 µM
same,TGI,[19],15.3 µM
same,TGI,[20],24.9 µM
same,TGI,[21],20.4 µM
same,TGI,[22],28.5 µM
same,TGI,[23],22.1 µM
same,TGI,[24],23 µM
same,TGI,[25],27.6 µM
same,TGI,[26],4.88 µM
same,TGI,[27],22.1 µM
same,TGI,[28],26.2 µM
same,TGI,[29],12.9 µM
same,TGI,[30],24.8 µM
same,TGI,[31],23.1 µM
same,TGI,[32],24.5 µM
same,TGI,[33],25.3 µM
same,TGI,[34],18.8 µM
same,TGI,[35],15.1 µM
same,TGI,[36],23.8 µM
same,TGI,[37],21.7 µM
same,TGI,[38],6.45 µM
same,TGI,[39],21.4 µM
same,TGI,[40],21.5 µM
same,TGI,[41],22.1 µM
same,TGI,[42],26.8 µM
same,TGI,[43],22.3 µM
same,TGI,[44],14.7 µM
same,TGI,[45],22.9 µM
same,TGI,[46],13.8 µM
same,TGI,[47],28.6 µM
same,TGI,[48],24 µM
same,TGI,[49],17.7 µM
same,TGI,[50],26 µM
same,TGI,[51],24.3 µM
same,TGI,[52],11.9 µM
same,TGI,[53],26.4 µM
same,TGI,[54],13.8 µM
same,TGI,[55],7.53 µM
same,TGI,[56],12.7 µM
same,TGI,[57],21 µM
same,TGI,[58],13.2 µM
same,TGI,[59],28.8 µM
O=S(=O)(O)c1ccc(N=Nc2ccc(N=Nc3c(O)ccc4ccc(S(=O)(=O)O)cc34)cc2)cc1,TGI,[1],> 100 µM
same,TGI,[2],> 100 µM
same,TGI,[3],> 100 µM
same,TGI,[4],> 100 µM
same,TGI,[5],> 100 µM
same,TGI,[6],> 100 µM
same,TGI,[7],> 100 µM
same,TGI,[8],> 100 µM
same,TGI,[9],> 100 µM
same,TGI,[10],> 100 µM
same,TGI,[11],> 100 µM
same,TGI,[12],> 100 µM
same,TGI,[13],> 100 µM
same,TGI,[14],> 100 µM
same,TGI,[15],> 100 µM
same,TGI,[16],> 100 µM
same,TGI,[17],> 100 µM
same,TGI,[18],> 100 µM
same,TGI,[19],> 100 µM
same,TGI,[20],> 100 µM
same,TGI,[22],> 100 µM
same,TGI,[23],> 100 µM
same,TGI,[24],> 100 µM
same,TGI,[26],> 100 µM
same,TGI,[27],> 100 µM
same,TGI,[28],> 100 µM
same,TGI,[29],> 100 µM
same,TGI,[30],> 100 µM
same,TGI,[31],> 100 µM
same,TGI,[32],> 100 µM
same,TGI,[33],> 100 µM
same,TGI,[34],> 100 µM
same,TGI,[35],> 100 µM
same,TGI,[36],> 100 µM
same,TGI,[37],> 100 µM
same,TGI,[38],> 100 µM
same,TGI,[40],> 100 µM
same,TGI,[41],> 100 µM
same,TGI,[42],> 100 µM
same,TGI,[43],> 100 µM
same,TGI,[44],> 100 µM
same,TGI,[45],> 100 µM
same,TGI,[46],> 100 µM
same,TGI,[47],> 100 µM
same,TGI,[48],> 100 µM
same,TGI,[49],> 100 µM
same,TGI,[50],> 100 µM
same,TGI,[51],> 100 µM
same,TGI,[52],> 100 µM
same,TGI,[53],> 100 µM
same,TGI,[54],> 100 µM
same,TGI,[55],> 100 µM
same,TGI,[56],> 100 µM
same,TGI,[57],> 100 µM
same,TGI,[58],> 100 µM
same,TGI,[59],> 100 µM
